Where “and” joins values, the source holds several entries; their conditions need not be identical. Equal entries are not always repeated. Some results are limits rather than exact numbers.

The record followed here is PubChem BioAssay AID1918933 (Molecular Pharmacology Branch, DTP, NCI, 2023).

The subject of this assay is 186277-243-T-J2-PDC complex spheroid viability. Nature of the assay: Anticancer human tumor 186277-243-T-J2-PDC patient-derived colon adenocarcinoma cell line growth inhibition. The settings on record: for viability, T/C: stronger effect = lower value. From the text: Multicellular complex tumor spheroid response to LSD1 Inhibitor Iadademstat in combination with a variety of drugs and investigational agents in selected tumor cell lines
The current study was undertaken to assess response to LSD1 inhibitors in combination with standard-of-care drugs and investigational agents in solid tumor complex spheroid models as well as in the K-562 leukemia. Complex spheroids include a stromal component modeled by human endothelial cells (HUVEC) and fibroblasts modeled by human mesenchymal stem cells (MSCs). The concentration ranges selected for each drug and investigational agent were based upon clinically achievable concentrations if the clinical Cmax of the agent was known.
Compounds. The drugs and investigational agents used in this study are listed on Table 1. All of the agents used, including staurosporine (NSC755774) and gemcitabine (NSC613327), were obtained from the Developmental Therapeutics Program, NCI. FDA-approved anticancer drugs are available from the NCI at http://dtp.nci.nih.gov/branches/dscb/oncology_drugset_explanation.html. Drugs and investigational agents were >95% pure by proton nuclear magnetic resonance (NMR) and liquid chromatography/mass spectrometry (LC/MS). Stock solutions were prepared at 400x in DMSO, stored at -70 degrees C, and diluted in fresh medium prior to their use. The final concentration of DMSO in cell culture wells never exceeded 0.25% (v/v). The FDA-approved anticancer drug set is available from the Developmental Therapeutics Program at https://dtp.cancer.gov/organization/dscb/obtaining/available_plates.htm. All drugs and investigational agents were tested over a range starting from a high concentration at or near the clinical Cmax and decreasing in half-log increments. If the clinical Cmax for an agent had not been determined, the highest concentration tested was 10 microM.
Cell Lines. The patient-derived cancer cell (PDC) lines: 292921-168-R-J2-PDC, K24384-001-R-PDC, and 521955-158-R2-J5-PDC pancreatic carcinomas, 556581-035-R-J1 ovarian carcinoma, 324938-238-R-J1-PDC, 855422-203-R-J1-PDC and 883617-216-R-J1-PDC urothelial bladder carcinomas, 743489-274-T-PDC renal cell carcinoma, 138582-R-J1 Merkel cell tumor, K60290-347-R-J1 and K57222-313-R-J1-PDC glioblastomas, 653999-131-R-J2-PDC, LG0703-F948-PDC, and 349418-098-R-PDC non-small cell lung carcinomas, 885512-296-R-J2-PDC, 171881-019-R-J1-PDC breast carcinomas and 186277-243-T-J2-PDC and 233499-124-R-J2-PDC colon carcinomas were obtained from the NCI Patient-Derived Models Repository (PDMR, https://pdmr.cancer.gov). The established cell lines NCI/ADR-RES (RRID:CVCL_14520 and OVCAR-5 (RRID:CVCL_1628) ovarian carcinomas, 786-O (RRID:CVCL_1051) and A498 (RRID:CVCL_A498) renal cell carcinoma, NCI-H211 (ATCC, cat. CRL-5824; RRID:CVCL_1529), NCI-H196 (ATCC, cat. CRL-5823, RRID:CVCL_1509), SW 1271 (ATCC, cat. CRL-2177, RRID:CVCL_1716) and NCI-H1876 (ATCC, cat. CRL-5902, RRID:CVCL_1503) small cell lung carcinomas, MDA-MB-231 (RRID:CVCL_0062) and MDA-MB-468 (RRID:CVCL_0419)breast carcinomas (10-12). Pooled donor human umbilical vein endothelial cells (HUVEC, Lonza, cat. CC-2519) and human mesenchymal stem cells (hMSC, Lonza, cat. PT-2501) were purchased from Lonza (Walkersville, MD).
Cell Culture. All cells were maintained in an incubator at 37 degrees C and 5% CO2 with 95% humidity. The PDC lines were cultured according to standard operating procedures established by the NCI PDMR (https://pdmr.cancer.gov). Briefly all PDCs were thawed and cultured in Matrigel-coated flasks prepared with a working solution of 1X Ham's F-12 nutrient mix, without supplementation (Invitrogen, Waltham, MA, cat. 11765054), 100 U/mL penicillin-streptomycin (Invitrogen, cat. 15140122), and 2.5% Matrigel (Corning Inc., Corning, NY, cat. 354248) for the first three passages. […]

The mark [1] stands for this setting: curve of first compound, second compound 0.1 µM.
Setting [2] is: curve of first compound, second compound 0.316 µM.
[3] abbreviates: curve of first compound, second compound 1 µM.
The mark [4] stands for this setting: curve of first compound, second compound 3.16 µM.
Where [5] appears, read: curve of first compound, second compound 10 µM.
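Further: 7 day exposure to compounds.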

Usually viability, T/C stands for the result in the treated group divided by that in the control group, in per cent. For orientation: IC50 means the point on the concentration scale where inhibition reaches its midpoint. For `CC(C)c1c(-c2ccccc2)nc2c(C#N)c[nH]n2c1=O`, the viability, T/C is, setting by setting: (compound 0.0316 µM) 94.8% and 108%; (compound 0.1 µM) 93.3% and 97.7%; (compound 0.316 µM) 101% and 99.1%; (compound 1 µM) 97.6% and 97.4%; (compound 3.16 µM) 96% and 82.9%; (compound 10 µM) 85.3% and 72.9%. Besides, the concentration for half-maximal inhibition (IC50) (curve of compound) was above 10000 nM.

With `COc1ccc([C@@H](O)c2cc(-c3ncnc4cc(N5CCOCC5)ccc34)c(F)cc2Cl)nn1`, the viability, T/C is, setting by setting: (compound 0.0316 µM) 103% and 101%; (compound 0.1 µM) 104% and 100%; (compound 0.316 µM) 87.8% and 101%; (compound 1 µM) 84.4% and 100%; (compound 3.16 µM) 46.7% and 64.8%; (compound 10 µM) 3.51% and 12.2%. Besides, under “curve of compound”, the IC50 was 2970 nM and 4370 nM.

Take `NC1CC1c1ccc(-c2cccc(O)c2)cc1` (stereo not given): the viability, T/C (compound 0.1 µM) was 101%; the viability, T/C (compound 0.316 µM) was 102% [middle of 25 runs]; the viability, T/C (compound 3.16 µM) was 107% [middle of 25 runs]. Also, where the note is “compound alone, run of 02/01/2022”, the IC50 is above 10000 nM.

For the compound `NC1CCC(NC2CC2c2ccccc2)CC1` (stereo not given), the viability, T/C (compound 0.316 µM) was 104% and 114%. The IC50 (compound alone, run of 01/18/2022) is above 10000 nM.

Turning to `COc1cc(C2c3cc4c(cc3C(OC3OC5COC(C)OC5C(O)C3O)C3COC(=O)C23)OCO4)cc(OC)c1O` (stereo not given) + NC1CC1c1ccc(-c2cccc(O)c2)cc1, the half-maximal inhibitory concentration (IC50) by setting is: under setting [1], 596 nM; under setting [2], 586 nM; under setting [3], 667 nM; under setting [4], 635 nM; under setting [5], 458 nM. For the same compound, the viability, T/C (second compound 0.1 µM, first compound 0.00949 µM) is 107%; the viability, T/C (second compound 0.1 µM, first compound 0.03 µM) is 134%; the viability, T/C (second compound 0.1 µM, first compound 0.0949 µM) was 116%; the viability, T/C (second compound 0.1 µM, first compound 0.3 µM) is 73.7%; the viability, T/C (second compound 0.1 µM, first compound 0.949 µM) is 36.2%; the viability, T/C (second compound 0.1 µM, first compound 3 µM) was 17.4%. Further, the viability, T/C runs as follows: (second compound 0.316 µM, first compound 0.00949 µM) 103%; (second compound 0.316 µM, first compound 0.03 µM) 134%; (second compound 0.316 µM, first compound 0.0949 µM) 118%; (second compound 0.316 µM, first compound 0.3 µM) 73%; (second compound 0.316 µM, first compound 0.949 µM) 36.6%; (second compound 0.316 µM, first compound 3 µM) 18%. In addition, the viability, T/C (second compound 1 µM, first compound 0.00949 µM) was 99.7%; the viability, T/C (second compound 1 µM, first compound 0.03 µM) was 134%; the viability, T/C (second compound 1 µM, first compound 0.0949 µM) is 121%; the viability, T/C (second compound 1 µM, first compound 0.3 µM) is 80.9%; the viability, T/C (second compound 1 µM, first compound 0.949 µM) was 38.6%; the viability, T/C (second compound 1 µM, first compound 3 µM) was 17.7%. In addition, the viability, T/C is 100% (second compound 3.16 µM, first compound 0.00949 µM); 137% (second compound 3.16 µM, first compound 0.03 µM); 133% (second compound 3.16 µM, first compound 0.0949 µM); 79% (second compound 3.16 µM, first compound 0.3 µM); 39.9% (second compound 3.16 µM, first compound 0.949 µM); 17.4% (second compound 3.16 µM, first compound 3 µM). For the same compound, the viability, T/C by setting is: (second compound 10 µM, first compound 0.00949 µM) 94.3%; (second compound 10 µM, first compound 0.03 µM) 146%; (second compound 10 µM, first compound 0.0949 µM) 119%; (second compound 10 µM, first compound 0.3 µM) 64.1%; (second compound 10 µM, first compound 0.949 µM) 29.9%; (second compound 10 µM, first compound 3 µM) 11.2%.

Consider `Nc1ncn(C2CC(O)C(CO)O2)c(=O)n1` (stereo not given) + NC1CC1c1ccc(-c2cccc(O)c2)cc1, for which the IC50 by setting is: under setting [1], above 1000 nM; under setting [2], above 1000 nM; under setting [3], above 1000 nM; under setting [4], above 1000 nM; under setting [5], above 1000 nM. The viability, T/C (second compound 0.1 µM, first compound 0.00316 µM) was 108%; the viability, T/C (second compound 0.1 µM, first compound 0.01 µM) was 103%; the viability, T/C (second compound 0.1 µM, first compound 0.0316 µM) was 112%; the viability, T/C (second compound 0.1 µM, first compound 0.1 µM) is 106%; the viability, T/C (second compound 0.1 µM, first compound 0.316 µM) was 148%; the viability, T/C (second compound 0.1 µM, first compound 1 µM) is 159%. The viability, T/C was 100% (second compound 0.316 µM, first compound 0.00316 µM); 102% (second compound 0.316 µM, first compound 0.01 µM); 114% (second compound 0.316 µM, first compound 0.0316 µM); 138% (second compound 0.316 µM, first compound 0.1 µM); 143% (second compound 0.316 µM, first compound 0.316 µM); 150% (second compound 0.316 µM, first compound 1 µM). Moreover, the viability, T/C (second compound 1 µM, first compound 0.00316 µM) is 104%; the viability, T/C (second compound 1 µM, first compound 0.01 µM) was 109%; the viability, T/C (second compound 1 µM, first compound 0.0316 µM) is 107%; the viability, T/C (second compound 1 µM, first compound 0.1 µM) was 119%; the viability, T/C (second compound 1 µM, first compound 0.316 µM) was 137%; the viability, T/C (second compound 1 µM, first compound 1 µM) was 157%. The viability, T/C is 100% (second compound 3.16 µM, first compound 0.00316 µM); 95.5% (second compound 3.16 µM, first compound 0.01 µM); 97.3% (second compound 3.16 µM, first compound 0.0316 µM); 121% (second compound 3.16 µM, first compound 0.1 µM); 140% (second compound 3.16 µM, first compound 0.316 µM); 162% (second compound 3.16 µM, first compound 1 µM). The viability, T/C is, setting by setting: (second compound 10 µM, first compound 0.00316 µM) 110%; (second compound 10 µM, first compound 0.01 µM) 107%; (second compound 10 µM, first compound 0.0316 µM) 98.6%; (second compound 10 µM, first compound 0.1 µM) 112%; (second compound 10 µM, first compound 0.316 µM) 124%; (second compound 10 µM, first compound 1 µM) 148%.
